# Assays:
# Assay type in all cases: physicochemical
# [1] = Example 1: stability of bilberry extract anthocyanosides, 4 hours at 37° C., pH 7.0, with/without DHLA or GSH (HPLC)
# Method: (0.048 mmol anthocyanosides expressed as cyanidin-3-O-glucoside) were added to a 100 ml flask and filled to volume with sodium phosphate buffer (5% [w/w], pH=7.0), and stirred until dissolution was complete. A 1 ml sample was taken immediately and acidified with formic acid to pH=1.0 and analyzed by HPLC for the content of anthocyanosides (Fresh Sample). The remaining solution was kept for 4 hours at 37° C. (water bath) with stirring. Thereafter another sample (Blank sample), representing unprotected degradation, was taken and acidified.
# (0.048 mmol expressed as cyanidin-3-O-glucoside) were then added and the flask was filled to volume with sodium phosphate buffer (5% [w/w], pH=7.0) and kept for 4 hours at 37° C. (water bath) with stirring.
# Quantitation: External standardization based on linear regression analysis. The response factors of all anthocyanosides separated is quantitified against cyanidin-3-O-glucoside.
# Test solutions from incubation experiments (with/without cells and with/without stabilizing agents) were used for analysis after stabilization of anthocyanosides with formic acid. Samples were cleared by filtration prior to injection on to HPLC-system.
# [2] = Cyanidin-3-O-galactoside at pH 3.1 or 7.0 with/without DHLA, 25° C. over 3 days (HPLC)
# Method: Cyanidn-3-O-Galactoside (0.001 molar solution) was dissolved at pH=3.1 or pH=7.0 each with/without DHLA (1.44 mmolar solution). Replicate incubations were followed at 25° C. over 3 days by HPLC.
# [3] = Example 9: stability of bilberry extract anthocyanosides, 4 hours at 37° C., pH 7.0, with/without L-cysteine
# Method: Sample a) 60 mg bilberry extract [37% anthocyanosides] (0.048 mmol anthocyanosides expressed as cyanidin-3-O-glucoside) were added to a 100 ml flask with 60 ml sodium phosphate buffer (5% [w/w], pH=7.0), and stirred until dissolution was complete. A 1 ml sample was taken immediately and acidified with formic acid to pH=1.0 and analyzed by HPLC for the content of anthocyanosides (Fresh Sample). The remaining solution was kept for 4 hours at 37° C. (water bath) with stirring. Thereafter another sample (Blank sample), representing unprotected degradation, was taken and acidified.
# Sample b) 20 mg L-cysteine […] were added to a 100 ml flask with 60 ml sodium phosphate buffer (5% [w/w], pH=7.0) and stirred until dissolution was complete. 60 mg bilberry extract [37% anthocyanosides] (0.048 mmol expressed as cyanidin-3-O-glucoside) were then added to the flask and stir to fully dissolve, then kept for 4 hours at 37° C. (water bath) with stirring.
# After 4 hours, samples were taken and acidified immediately with formic acid to pH=1.0 and analyzed by HPLC for the content of anthocyanosides. Degradation is expressed as decrease in peak area of individual peaks (calculated as % left after 4 hours).
# Samples were prepared as outlined above in the HPLC Analytical Method. Test stability samples were immediately acidified (to block degradation) and injected undiluted following the detailed description provided below.
# [4] = Example 2: degradation over time of selected bilberry anthocyanosides at 37° C., pH 7.0, with/without GSH (HPLC); details: pH 7.0, 37° C.; for %-residual anthocyanosides (% left): 4.30 hours
# Method: Sample a) 60 mg bilberry extract [37% anthocyanosides] (0.048 mmol expressed as cyanidin-3-O-glucoside) were added to a 100 ml, filled to volume with sodium phosphate buffer (5% [w/w], pH=7.0) and stirred until dissolution was complete. A 1 ml sample was immediately taken and acidified with formic acid to pH=1.0 and analyzed by HPLC for the content of anthocyanosides. The remaining solution was kept at 37° C. (water bath) with stirring and additional 1 ml samples (Blank Samples), representing unprotected degradation, were sampled every 15 minutes. The samples were analyzed for selected anthocyanosides by HPLC.
# Sample b) 20 mg reduced L-glutathione (0.065 mmol) were added to a 100 ml flask with 60 ml sodium phosphate buffer (5% [w/w], pH=7.0) and stirred until dissolution was complete. 60 mg bilberry extract [37% anthocyanosides] (0.048 mmol expressed as cyanidin-3-O-glucoside) were added and the flask was filled to volume with sodium phosphate buffer (5% [w/w], pH=7.0) and kept at 37° C. (water bath) with stirring. Every 15 minutes, 1 ml samples were taken and analyzed for selected anthocyanosides by HPLC.
# Samples were prepared as outlined below in HPLC Analytical Method. Test stability samples were immediately acidified (to block degradation) and injected undiluted following the detailed description provided below.
# HPLC Analytical Method (Materials, Instruments and Methods): […]
# [5] = 20 mg reduced L-glutathione, pH 7.0, 37° C., 4 hours
# [6] = 30 mg dihydrolipoic acid, pH 7.0, 37° C., 4 hours
# [7] = unprotected, pH 7.0, 37° C., 4 hours
compound,measurement,setting,value
"OC[C@H]1O[C@@H](Oc2cc3c(O)cc(O)cc3[o+]c2-c2ccc(O)c(O)c2)[C@H](O)[C@@H](O)[C@H]1O [Cn-3O-Gal, Cyanidin-3-O-galactoside]","% left, GSH (4 hours)",[1]; [5],77.3%
same,"Peak Area, GSH (4 hours)",[1]; [5],360.2
same,"% left, DHLA (4 hours)",[1]; [6],64.5%
same,"Peak Area, DHLA (4 hours)",[1]; [6],300.3
same,"Peak Area, Fresh (0 hours)","[1]; bilberry extract 60 mg/100 ml sodium phosphate buffer pH 7.0, fresh sample",465.8
same,"% left, Blank (4 hours)",[1]; [7],41.0%
same,"Peak Area, Blank (4 hours)",[1]; [7],191.1
same,recovered after 3 days,"[2]; pH 3.1, 25° C., in presence of DHLA (1.44 mmolar)",95%
same,recovered after 3 days,"[2]; pH 3.1, 25° C., unprotected sample",61%
same,recovered after 3 days,"[2]; pH 7.0, 25° C., in presence of DHLA (1.44 mmolar)",about 47%
same,recovered after 3 days,"[2]; pH 7.0, 25° C., unprotected sample",~0%
same,"Peak Area, Fresh solution","[3]; bilberry extract 60 mg in buffer pH 7.0, fresh sample",465.8
same,"% left, L-cysteine 20 mg","[3]; pH 7.0, 37° C., 4 hours",77.3%
same,"Peak Area, L-cysteine 20 mg","[3]; pH 7.0, 37° C., 4 hours",360.2
same,"% left, Blank",[3]; [7],41.0%
same,"Peak Area, Blank",[3]; [7],191.1
same,Peak Area,"[4]; Blank Sample, 1:15 h",305.40
same,Peak Area,"[4]; Blank Sample, 4:15 h",300.50
same,Peak Area,"[4]; Blank Sample, 4:30 h",205.36
same,Peak Area,"[4]; Blank sample, 0:00 h",498.85
same,Peak Area,"[4]; Blank sample, 0:15 h",390.37
same,Peak Area,"[4]; Blank sample, 0:30 h",433.94
same,Peak Area,"[4]; Blank sample, 0:45 h",347.29
same,Peak Area,"[4]; Blank sample, 1:00 h",380.25
same,Peak Area,"[4]; Blank sample, 1:45 h",353.94
same,Peak Area,"[4]; Blank sample, 2:00 h",337.90
same,Peak Area,"[4]; Blank sample, 2:15 h",320.70
same,Peak Area,"[4]; Blank sample, 2:30 h",271.19
same,Peak Area,"[4]; Blank sample, 2:45 h",274.22
same,Peak Area,"[4]; Blank sample, 3:00 h",324.58
same,Peak Area,"[4]; Blank sample, 3:15 h",324.25
same,Peak Area,"[4]; Blank sample, 3:30 h",281.19
same,Peak Area,"[4]; Blank sample, 4:00 h",315.54
same,%-residual anthocyanosides (% left),[4]; Blank,41%
same,Peak Area,"[4]; GSH Protected Sample (20 mg), 0:30 h",470.61
same,Peak Area,"[4]; GSH Protected Sample (20 mg), 1:30 h",431.86
same,Peak Area,"[4]; GSH Protected Sample (20 mg), 2:30 h",390.23
same,Peak Area,"[4]; GSH Protected Sample (20 mg), 3:30 h",422.54
same,Peak Area,"[4]; GSH Protected Sample (20 mg), 4:30 h",420.37
same,Peak Area,"[4]; GSH Protected Sample (20 mg), 4:45 h",393.21
same,Peak Area,"[4]; GSH protected sample (20 mg), 0:00 h",508.09
same,Peak Area,"[4]; GSH protected sample (20 mg), 0:15 h",504.88
same,Peak Area,"[4]; GSH protected sample (20 mg), 0:45 h",425.89
same,Peak Area,"[4]; GSH protected sample (20 mg), 1:00 h",462.71
same,Peak Area,"[4]; GSH protected sample (20 mg), 1:15 h",452.17
same,Peak Area,"[4]; GSH protected sample (20 mg), 1:45 h",442.86
same,Peak Area,"[4]; GSH protected sample (20 mg), 2:00 h",436.19
same,Peak Area,"[4]; GSH protected sample (20 mg), 2:15 h",442.30
same,Peak Area,"[4]; GSH protected sample (20 mg), 2:45 h",422.32
same,Peak Area,"[4]; GSH protected sample (20 mg), 3:00 h",433.21
same,Peak Area,"[4]; GSH protected sample (20 mg), 3:15 h",425.54
same,Peak Area,"[4]; GSH protected sample (20 mg), 3:45 h",397.72
same,Peak Area,"[4]; GSH protected sample (20 mg), 4:00 h",446.42
same,Peak Area,"[4]; GSH protected sample (20 mg), 4:15 h",419.80
same,%-residual anthocyanosides (% left),[4]; GSH-protected,77%
same,%-residual anthocyanosides (% left),"[4]; GSH-protected, listed as cyanidin-3-O-galactose",77%

# From patent US8623429B2, “Stabilized anthocyanin compositions” (Omnica GmbH, priority 2007, dated 2014)
